According to PMC5321741, “Arylmethylamino steroids as antiparasitic agents” (Nature Communications, 2017):
Like-named read-outs stand apart in the source and are kept apart here.

Experiments:
[1] = in vivo; design: species or system C57BL/6 mice; conditions: C57BL/6, mouse
Experimental: The compound was applied at an accumulative dose of 100 mg kg^−1 (per os (p.o.). as well as intraperitoneally (i.p.)). The first application was 5 mg kg^−1, 2 h later 15 mg kg^−1, 2 h later 30 mg kg^−1 and again 2 h later 50 mg kg^−1. […] Moreover, we performed pharmacokinetics studies in mice, dosing i.v., i.p. and p.o. (Supplementary Table 5). […] In contrast, high exposure and sustained levels of ∼2 μM were obtained after i.p. dosing at 100 mg kg^−1.
Parameter (n=3/time point)
Supplementary Table 5. Mouse pharmacokinetics of compound 1o.

[2] = tested on: P. falciparum gametocytes (pfs16-GFP-Luc, NF54 background); assay: gametocyte luciferase assay; format: cell-based, Plasmodium falciparum
Experimental: Sensitivity of P falciparum gametocytes to lead compound 1o was determined by measuring the activity of luciferase in luciferase-expressing gametocytes after an exposure of 72 h to different concentrations of compound 1o.
The pfs16-GFP-Luc (NF54 background) parasite strain[44] was maintained at 1 to 10% parasitaemia in an RPMI 1640 culture medium supplemented with A+ erythrocytes (2% haematocrit), 10% decomplemented human serum, 9 mM (0.16%) glucose, 0.2 mM hypoxanthine, 2.1 mM L-glutamine, and 20 μg ml^−1 gentamicin. Parasite cultures were incubated at 37 °C in 5% O2, 5% CO2, and 90% N2. […] Following drug exposure, parasites were cultivated for two additional days in normal medium before centrifugation and freezing at −80 °C, and luciferase activity was measured.
Plates frozen at −80 °C were thawed at 37 °C. […] Luciferase activity was measured on a luminescence plate reader (Mithras LB940 luminometer, Berthold Technologies). The mean of the luciferase activity was calculated for each technical triplicate and normalized as follows: (Lucx−LucRBC)/(Lucsolvent−LucRBC) with Lucx and Lucsolvent=mean luciferase activity for parasites incubated with compound x and with solvent (DMSO for 1o and PBS for MB), respectively, and LucRBC=mean luciferase activity of non-infected red blood cells (background). […]

[3] = tested on: P. falciparum NF54; assay: IC50 speed assay; format: cell-based, Plasmodium falciparum; conditions: for IC50: Plasmodium falciparum, mean±s.d., three biological replicates
Experimental: To assess the rapidity of growth inhibition induced by the steroid compounds, the so-called IC50 speed assay[16] was conducted for compound 1o on P. falciparum NF54 (Fig. 2a,b).

[4] = PAMPA membrane permeability; format: in vitro ADME
Experimental: Pharmacokinetic data were obtained for compound 1o at the Sanford-Burnham Medical Research Institute according to established procedures. Compound solubility in an aqueous solution was measured using an automated kinetic solubility method. The concentration of the compound in a saturated pH-buffered aqueous solution was determined via UV absorbance (250–498 nm) and compared with the spectra of a precipitation-free reference solution. The plasma stability of the compound was determined at a single concentration using species-specific plasma. The percentage of parent compound remaining after 3 h was determined via LC-MS/MS. The percentage of compound 1o bound to plasma proteins was determined through rapid equilibrium dialysis and quantified via LC-MS/MS. Metabolic stability of the compound was determined at a single concentration using species-specific liver microsomes that contained cytochrome P450s, flavin-monooxygenases, carboxyl-esterases, epoxide hydrolases, and other drug-metabolizing enzymes. The quantification was carried out via LC-MS/MS. Membrane permeability of compound 1o was measured using an in vitro model for the passive transport from the gastrointestinal tract into the blood system. A double-sink parallel artificial membrane permeability assay PAMPA, in a 96-well format was employed.

COc1ccc2c(c1)CCC1C2CC[C@@]2(C)C1CC[C@H]2NCc1cc2ccccc2cc1O (stereo partly drawn) [1o]
AUC(0-t) ([1]; ip, 100 mg/kg): 13000 ng·h/mL
Cmax ([1]; ip, 100 mg/kg): 850 ng/mL
Tmax ([1]; ip, 100 mg/kg): 3 h
bioavailability ([1]; ip, 100 mg/kg): 24%
half-life ([1]; ip, 100 mg/kg): > 8 h
AUC(0-t) ([1]; iv, 1 mg/kg): 567 ng·h/mL
Vd ([1]; iv, 1 mg/kg): 6.4 L/kg
clearance ([1]; iv, 1 mg/kg): 29.6 mL/min/kg
half-life ([1]; iv, 1 mg/kg): > 8 h
AUC(0-t) ([1]; po, 100 mg/kg): 622 ng·h/mL
Cmax ([1]; po, 100 mg/kg): 43 ng/mL
Tmax ([1]; po, 100 mg/kg): 8.25 h
bioavailability ([1]; po, 100 mg/kg): < 5%
half-life ([1]; po, 100 mg/kg): > 8 h
relative survival of gametocytes ([2]; concentrations >5 nM, all stages, 72 h exposure): below 50%
complete killing of gametocytes ([2]; even at concentrations >1 μM): never detected complete killing of gametocytes
speed of action (IC50 shift across 24, 48, 72 h) [3]: no significant IC50 shifts
IC50 ([3]; NF54, read-out: IC50 24 h, 24 h compound incubation): 2.9 ± 0.2 nM
IC50 ([3]; NF54, 48 h compound incubation, read-out: IC50 48 h): 3.4 ± 0.2 nM
IC50 ([3]; NF54, 72 h compound incubation, read-out: IC50 72 h): 2.7 ± 0.4 nM
PAMPA Pe ([4]; Donor pH 5.0, Acceptor pH 7.4): 0 ×10⁻⁶ cm/s
PAMPA Pe ([4]; Donor pH 6.2, Acceptor pH 7.4): 0 ×10⁻⁶ cm/s
PAMPA Pe ([4]; Donor pH 7.4, Acceptor pH 7.4): 0 ×10⁻⁶ cm/s
PAMPA permeability in words ([4]; all 3 pH levels, compound well embedded in the filter membrane): very poorly permeable at all 3 pH levels tested
